What was measured:
CYP1A2 = biological target: T1, CYP1A2 (Homo sapiens, UniProt P05177); experiment: Inhibition of CYP1A2 (unknown origin) using phenacetin as substrate at 10 uM by cocktail based assay relative to control; assay type: ADME; conditions: probe phenacetin
T1 sequence (P05177 whole entry): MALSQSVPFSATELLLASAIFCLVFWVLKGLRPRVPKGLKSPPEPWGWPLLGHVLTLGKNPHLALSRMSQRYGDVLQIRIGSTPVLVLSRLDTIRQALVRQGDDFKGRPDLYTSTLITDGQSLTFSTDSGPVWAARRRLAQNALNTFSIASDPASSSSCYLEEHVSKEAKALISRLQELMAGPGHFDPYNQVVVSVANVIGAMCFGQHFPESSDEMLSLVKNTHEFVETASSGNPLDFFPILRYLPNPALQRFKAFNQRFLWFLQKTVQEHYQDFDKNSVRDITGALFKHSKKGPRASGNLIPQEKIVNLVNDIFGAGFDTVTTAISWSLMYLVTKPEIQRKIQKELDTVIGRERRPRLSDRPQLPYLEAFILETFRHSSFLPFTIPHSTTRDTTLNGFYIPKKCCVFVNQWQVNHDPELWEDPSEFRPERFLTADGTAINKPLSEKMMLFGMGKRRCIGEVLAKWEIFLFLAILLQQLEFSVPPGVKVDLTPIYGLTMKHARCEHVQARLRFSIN

CYP2D6 = CYP2D6 (Homo sapiens, UniProt P10635); experiment: Inhibition of CYP2D6 (unknown origin) using bufuralol as substrate at 10 uM by cocktail based assay relative to control; assay type: ADME; conditions: probe bufuralol
CYP2D6, sequence (P10635 whole entry): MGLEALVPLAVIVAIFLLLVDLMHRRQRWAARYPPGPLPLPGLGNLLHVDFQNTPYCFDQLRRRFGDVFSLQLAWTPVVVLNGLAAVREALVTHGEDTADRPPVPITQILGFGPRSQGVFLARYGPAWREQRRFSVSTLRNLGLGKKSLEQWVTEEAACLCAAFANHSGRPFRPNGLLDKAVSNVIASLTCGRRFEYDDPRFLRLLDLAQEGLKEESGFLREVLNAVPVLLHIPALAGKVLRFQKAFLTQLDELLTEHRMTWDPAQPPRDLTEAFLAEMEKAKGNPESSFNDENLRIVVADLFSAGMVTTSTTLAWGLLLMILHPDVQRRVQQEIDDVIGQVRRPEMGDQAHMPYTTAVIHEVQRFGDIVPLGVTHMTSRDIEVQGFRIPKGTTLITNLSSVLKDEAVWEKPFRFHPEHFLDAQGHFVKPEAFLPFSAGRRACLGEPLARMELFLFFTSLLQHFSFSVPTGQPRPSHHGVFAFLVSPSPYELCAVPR

CYP3A4 = CYP3A4 (Homo sapiens, UniProt P08684); experiment: Inhibition of CYP3A4 (unknown origin) using midazolam as substrate at 10 uM by cocktail based assay relative to control; assay type: ADME; conditions: probe midazolam
CYP3A4, sequence (P08684 whole entry): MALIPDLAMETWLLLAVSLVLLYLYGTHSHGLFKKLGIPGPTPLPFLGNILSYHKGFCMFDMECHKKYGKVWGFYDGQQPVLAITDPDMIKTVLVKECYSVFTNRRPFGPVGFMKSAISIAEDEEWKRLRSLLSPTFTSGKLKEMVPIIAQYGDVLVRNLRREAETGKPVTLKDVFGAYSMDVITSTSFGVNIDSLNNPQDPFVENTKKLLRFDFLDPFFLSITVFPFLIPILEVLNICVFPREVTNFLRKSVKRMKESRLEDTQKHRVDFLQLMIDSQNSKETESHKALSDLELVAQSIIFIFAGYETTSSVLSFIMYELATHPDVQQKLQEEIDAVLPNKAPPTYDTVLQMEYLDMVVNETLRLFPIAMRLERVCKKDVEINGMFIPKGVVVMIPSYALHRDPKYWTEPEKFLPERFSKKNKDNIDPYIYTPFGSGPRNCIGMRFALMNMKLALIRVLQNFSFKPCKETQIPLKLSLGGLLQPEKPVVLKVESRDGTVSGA

CYP2C9 = CYP2C9 (Homo sapiens, UniProt P11712); experiment: Inhibition of CYP2C9 (unknown origin) using tolbutamide as substrate at 10 uM by cocktail based assay relative to control; assay type: ADME; conditions: probe tolbutamide
CYP2C9, sequence (P11712 whole entry): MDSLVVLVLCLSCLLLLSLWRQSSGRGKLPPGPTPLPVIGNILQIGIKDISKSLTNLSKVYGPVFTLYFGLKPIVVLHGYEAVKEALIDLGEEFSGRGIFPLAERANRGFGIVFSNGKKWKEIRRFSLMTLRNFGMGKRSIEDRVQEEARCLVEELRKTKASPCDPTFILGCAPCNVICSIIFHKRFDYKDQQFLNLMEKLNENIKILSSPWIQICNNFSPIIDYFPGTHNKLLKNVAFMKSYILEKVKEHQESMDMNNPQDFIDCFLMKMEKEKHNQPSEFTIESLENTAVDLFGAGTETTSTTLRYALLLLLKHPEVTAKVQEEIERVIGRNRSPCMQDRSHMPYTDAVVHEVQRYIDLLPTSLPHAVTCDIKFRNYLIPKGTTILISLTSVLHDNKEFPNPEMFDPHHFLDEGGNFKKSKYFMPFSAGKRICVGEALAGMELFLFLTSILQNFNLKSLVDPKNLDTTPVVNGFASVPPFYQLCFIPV

[1] = biological target: T2, Serine/threonine-protein kinase 17A (Homo sapiens, UniProt Q9UEE5); experiment: Inhibition of STK17A (unknown origin) in presence of ATP
T2 sequence (Q9UEE5 whole entry): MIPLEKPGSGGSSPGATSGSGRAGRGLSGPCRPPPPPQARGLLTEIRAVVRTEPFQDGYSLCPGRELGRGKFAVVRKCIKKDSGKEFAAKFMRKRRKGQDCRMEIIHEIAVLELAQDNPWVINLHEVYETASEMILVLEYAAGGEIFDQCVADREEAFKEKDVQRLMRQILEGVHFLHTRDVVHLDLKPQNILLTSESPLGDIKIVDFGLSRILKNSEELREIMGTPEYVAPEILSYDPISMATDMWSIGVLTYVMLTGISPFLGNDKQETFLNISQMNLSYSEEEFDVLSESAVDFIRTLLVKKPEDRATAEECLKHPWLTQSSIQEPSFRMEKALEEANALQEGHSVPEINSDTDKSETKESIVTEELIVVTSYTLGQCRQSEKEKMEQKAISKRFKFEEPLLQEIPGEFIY

[2] = Microsomal stability in mouse liver microsomes assessed as half life; assay type: ADME, Microsome
[3] = Microsomal stability in human liver microsomes assessed as half life; assay type: ADME, Microsome
[4] = biological target: T3, Myosin light chain kinase family member 4 (Homo sapiens, UniProt Q86YV6); experiment: Inhibition of MYLK4 (unknown origin) in presence of ATP
T3 sequence (Q86YV6 whole entry): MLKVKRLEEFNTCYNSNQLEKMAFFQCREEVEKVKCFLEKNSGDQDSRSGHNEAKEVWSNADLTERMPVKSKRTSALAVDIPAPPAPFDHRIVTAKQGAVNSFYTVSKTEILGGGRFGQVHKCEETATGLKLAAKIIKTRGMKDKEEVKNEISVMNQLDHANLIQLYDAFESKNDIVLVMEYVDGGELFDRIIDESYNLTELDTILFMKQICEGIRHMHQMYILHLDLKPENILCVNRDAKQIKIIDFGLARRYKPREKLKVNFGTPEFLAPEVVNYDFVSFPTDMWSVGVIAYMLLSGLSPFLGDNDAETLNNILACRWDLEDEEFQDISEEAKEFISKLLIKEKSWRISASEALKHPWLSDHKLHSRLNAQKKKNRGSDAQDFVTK

[5] = biological target: Serine/threonine-protein kinase Nek3 (Homo sapiens) (UniProt P51956); conditions: dose 100.0 nM
Description: Inhibition of NEK3 (unknown origin) at 100 nM in presence of ATP relative to control

HEL = experiment: Antiproliferative activity against human HEL cells assessed as inhibition of cell growth incubated for 72 hrs by Cell Titer-Glo luminescence assay; assay type: functional, cell-based
Kasumi 1 = experiment: Antiproliferative activity against human Kasumi 1 cells assessed as inhibition of cell growth incubated for 72 hrs by Cell Titer-Glo luminescence assay; assay type: functional, cell-based; conditions: Kasumi 1, 72 h
[6] = biological target: T4, Dual specificity protein kinase CLK4 (Homo sapiens, UniProt Q9HAZ1); experiment: Inhibition of CLK4 (unknown origin) in presence of ATP
Target sequence in this assay (Q9HAZ1 whole entry): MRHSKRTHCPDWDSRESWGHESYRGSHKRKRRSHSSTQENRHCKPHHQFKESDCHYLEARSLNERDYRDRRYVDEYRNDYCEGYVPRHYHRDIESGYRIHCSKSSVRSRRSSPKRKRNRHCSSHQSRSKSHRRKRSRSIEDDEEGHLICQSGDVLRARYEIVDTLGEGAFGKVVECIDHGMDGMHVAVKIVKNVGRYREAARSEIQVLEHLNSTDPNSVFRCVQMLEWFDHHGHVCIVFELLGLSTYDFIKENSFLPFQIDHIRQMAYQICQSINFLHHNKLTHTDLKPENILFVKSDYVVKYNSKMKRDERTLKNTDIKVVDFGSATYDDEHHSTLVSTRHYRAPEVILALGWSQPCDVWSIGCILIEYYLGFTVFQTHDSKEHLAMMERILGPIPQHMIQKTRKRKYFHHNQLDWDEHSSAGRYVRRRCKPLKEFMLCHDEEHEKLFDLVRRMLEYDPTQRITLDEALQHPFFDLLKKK

[7] = biological target: Serine/threonine-protein kinase Nek5 (Homo sapiens, UniProt Q6P3R8); experiment: Inhibition of NEK5 (unknown origin) in presence of ATP
Serine/threonine-protein kinase Nek5, sequence (Q6P3R8 whole entry): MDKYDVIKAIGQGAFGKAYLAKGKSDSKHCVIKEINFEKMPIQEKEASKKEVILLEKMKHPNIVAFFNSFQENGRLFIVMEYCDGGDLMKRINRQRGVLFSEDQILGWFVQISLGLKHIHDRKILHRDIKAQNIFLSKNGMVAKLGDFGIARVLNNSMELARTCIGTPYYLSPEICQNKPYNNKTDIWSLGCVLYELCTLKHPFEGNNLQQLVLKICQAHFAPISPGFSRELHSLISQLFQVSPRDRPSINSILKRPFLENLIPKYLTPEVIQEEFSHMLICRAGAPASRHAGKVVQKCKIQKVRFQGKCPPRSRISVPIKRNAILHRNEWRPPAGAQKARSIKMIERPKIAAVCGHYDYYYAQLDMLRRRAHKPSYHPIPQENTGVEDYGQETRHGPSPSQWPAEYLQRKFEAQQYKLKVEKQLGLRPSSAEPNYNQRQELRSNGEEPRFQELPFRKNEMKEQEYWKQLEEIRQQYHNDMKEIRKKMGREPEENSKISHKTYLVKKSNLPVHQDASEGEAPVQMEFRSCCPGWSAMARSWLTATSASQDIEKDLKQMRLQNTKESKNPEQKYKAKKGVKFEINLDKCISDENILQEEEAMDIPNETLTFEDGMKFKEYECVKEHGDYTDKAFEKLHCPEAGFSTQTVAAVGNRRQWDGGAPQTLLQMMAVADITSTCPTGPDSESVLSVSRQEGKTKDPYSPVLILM

MOLM-13 = experiment: Antiproliferative activity against human MOLM-13 cells assessed as inhibition of cell growth incubated for 72 hrs by Cell Titer-Glo luminescence assay; assay type: functional, cell-based; conditions: MOLM-13, 72 h
[8] = Half life in C57BL/6 mouse at 10 mg/kg,po administration and measured upto 24 hrs; assay type: ADME, organism-based; conditions: in vivo
[9] = biological target: Serine/threonine-protein kinase Nek3 (Homo sapiens, UniProt P51956); experiment: Inhibition of NEK3 (unknown origin) in presence of ATP
[10] = AUClast in C57BL/6 mouse at 10 mg/kg,po administration and measured upto 24 hrs; assay type: ADME, organism-based; conditions: in vivo
[11] = biological target: Serine/threonine-protein kinase 17B (Homo sapiens) (UniProt O94768); experiment: Inhibition of STK17B (unknown origin) at 1 uM in presence of ATP relative to control
[12] = Antiproliferative activity against human HEK293T cells assessed as inhibition of cell growth incubated for 72 hrs by Cell Titer-Glo luminescence assay; assay type: toxicity, cell-based, HEK-293T
LIM domain kinase 1 [13] = biological target: T5, LIM domain kinase 1 (Homo sapiens, UniProt P53667); experiment: Inhibition of LIMK1 (unknown origin) in presence of ATP
Target sequence in this assay (P53667 whole entry, the tested form may be a part): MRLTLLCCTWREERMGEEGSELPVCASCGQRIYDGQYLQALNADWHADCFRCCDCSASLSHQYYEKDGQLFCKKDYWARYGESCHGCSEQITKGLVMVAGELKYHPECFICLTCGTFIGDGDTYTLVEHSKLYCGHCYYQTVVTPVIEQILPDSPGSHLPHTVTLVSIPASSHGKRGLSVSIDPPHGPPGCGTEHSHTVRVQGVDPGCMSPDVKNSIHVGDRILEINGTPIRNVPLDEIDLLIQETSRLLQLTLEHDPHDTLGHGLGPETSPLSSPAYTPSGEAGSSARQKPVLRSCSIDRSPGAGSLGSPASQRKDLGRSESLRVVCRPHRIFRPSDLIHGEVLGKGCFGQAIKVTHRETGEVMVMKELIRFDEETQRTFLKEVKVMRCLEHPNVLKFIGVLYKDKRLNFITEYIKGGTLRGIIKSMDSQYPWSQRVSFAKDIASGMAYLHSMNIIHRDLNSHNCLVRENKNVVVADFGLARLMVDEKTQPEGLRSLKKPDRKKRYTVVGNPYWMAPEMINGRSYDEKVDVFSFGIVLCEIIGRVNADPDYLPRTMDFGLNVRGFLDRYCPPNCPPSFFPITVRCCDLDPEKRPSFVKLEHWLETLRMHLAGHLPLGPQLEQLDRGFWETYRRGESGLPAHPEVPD

[14] = Cmax in C57BL/6 mouse at 10 mg/kg,po administration and measured upto 24 hrs; assay type: ADME, organism-based; conditions: in vivo
[15] = Tmax in C57BL/6 mouse at 10 mg/kg,po administration and measured upto 24 hrs; assay type: ADME, organism-based; conditions: in vivo
LIM domain kinase 1 [16] = biological target: T5, LIM domain kinase 1; conditions: dose 100.0 nM
Target sequence in this assay (P53667 whole entry, looked up, the tested form may be a part): as the sequence (P53667 whole entry, the tested form may be a part) above
Description: Inhibition of LIMK1 (unknown origin) at 100 nM in presence of ATP relative to control

[17] = biological target: Serine/threonine-protein kinase Nek5 (Homo sapiens) (UniProt Q6P3R8); conditions: dose 100.0 nM
Serine/threonine-protein kinase Nek5 (Homo sapiens), sequence (Q6P3R8 whole entry): as the sequence (Q6P3R8 whole entry) above
Description: Inhibition of NEK5 (unknown origin) at 100 nM in presence of ATP relative to control

[18] = biological target: Serine/threonine-protein kinase TBK1 (Homo sapiens) (UniProt Q9UHD2); conditions: dose 100.0 nM
Serine/threonine-protein kinase TBK1 (Homo sapiens), sequence (Q9UHD2 whole entry): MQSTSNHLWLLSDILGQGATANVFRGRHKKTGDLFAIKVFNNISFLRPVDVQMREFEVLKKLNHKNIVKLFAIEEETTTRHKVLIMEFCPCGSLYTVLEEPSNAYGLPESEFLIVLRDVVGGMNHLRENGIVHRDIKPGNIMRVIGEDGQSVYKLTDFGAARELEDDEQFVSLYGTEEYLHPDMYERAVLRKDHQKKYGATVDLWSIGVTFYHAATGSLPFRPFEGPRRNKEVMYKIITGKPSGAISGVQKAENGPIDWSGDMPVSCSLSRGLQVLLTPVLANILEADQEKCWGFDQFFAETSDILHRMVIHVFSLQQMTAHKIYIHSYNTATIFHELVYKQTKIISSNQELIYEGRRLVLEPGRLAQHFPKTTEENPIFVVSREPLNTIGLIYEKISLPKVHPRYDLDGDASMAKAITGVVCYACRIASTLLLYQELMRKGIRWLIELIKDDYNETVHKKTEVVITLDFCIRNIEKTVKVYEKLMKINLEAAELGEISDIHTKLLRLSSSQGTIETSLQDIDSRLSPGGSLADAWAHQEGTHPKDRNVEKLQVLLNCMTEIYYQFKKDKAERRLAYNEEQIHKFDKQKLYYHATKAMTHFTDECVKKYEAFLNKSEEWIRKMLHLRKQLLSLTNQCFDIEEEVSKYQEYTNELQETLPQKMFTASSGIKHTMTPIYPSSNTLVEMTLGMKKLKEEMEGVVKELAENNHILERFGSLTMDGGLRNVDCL
Description: Inhibition of TBK1 (unknown origin) at 100 nM in presence of ATP relative to control

[19] = biological target: T4, Dual specificity protein kinase CLK4; conditions: dose 100.0 nM
Target sequence in this assay (Q9HAZ1 whole entry, looked up): as the sequence (Q9HAZ1 whole entry) above
Description: Inhibition of CLK4 (unknown origin) at 100 nM in presence of ATP relative to control

[20] = biological target: Inhibitor of nuclear factor kappa-B kinase subunit epsilon (Homo sapiens) (UniProt Q14164); experiment: Inhibition of IKKepsilon (unknown origin) at 100 nM in presence of ATP relative to control
[21] = biological target: Serine/threonine-protein kinase TBK1 (Homo sapiens, UniProt Q9UHD2); experiment: Inhibition of TBK1 (unknown origin) in presence of ATP
Serine/threonine-protein kinase TBK1, sequence (Q9UHD2 whole entry): as the sequence (Q9UHD2 whole entry) above

[22] = biological target: Dual specificity protein kinase CLK2 (Homo sapiens) (UniProt P49760); experiment: Inhibition of CLK2 (unknown origin) at 100 nM in presence of ATP relative to control
Dual specificity protein kinase CLK2 (Homo sapiens), sequence (P49760 whole entry, looked up): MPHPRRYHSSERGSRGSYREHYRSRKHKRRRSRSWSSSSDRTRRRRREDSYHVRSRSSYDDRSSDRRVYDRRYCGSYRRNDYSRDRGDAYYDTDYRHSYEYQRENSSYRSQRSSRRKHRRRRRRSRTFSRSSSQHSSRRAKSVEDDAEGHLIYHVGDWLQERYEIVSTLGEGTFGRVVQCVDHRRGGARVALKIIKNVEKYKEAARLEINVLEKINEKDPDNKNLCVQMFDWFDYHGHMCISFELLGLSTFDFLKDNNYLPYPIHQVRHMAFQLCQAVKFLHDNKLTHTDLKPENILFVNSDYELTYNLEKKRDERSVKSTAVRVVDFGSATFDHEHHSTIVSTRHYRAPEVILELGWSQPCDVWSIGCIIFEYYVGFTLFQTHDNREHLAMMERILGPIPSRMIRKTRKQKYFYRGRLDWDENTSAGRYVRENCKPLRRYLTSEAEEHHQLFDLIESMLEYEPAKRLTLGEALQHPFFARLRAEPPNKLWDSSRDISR

[23] = biological target: Myosin light chain kinase family member 4 (Homo sapiens) (UniProt Q86YV6); conditions: dose 100.0 nM
Description: Inhibition of MYLK4 (unknown origin) at 100 nM in presence of ATP relative to control

[24] = biological target: Serine/threonine-protein kinase 17A (Homo sapiens) (UniProt Q9UEE5); conditions: dose 100.0 nM
Description: Inhibition of STK17A (unknown origin) at 100 nM in presence of ATP relative to control

| inhibition at 10 µM (CYP1A2) [%] | inhibition at 10 µM (CYP2D6) [%] | inhibition at 10 µM (CYP3A4) [%] | inhibition at 10 µM (CYP2C9) [%] | IC50 [1] [nM] | half-life [2] [min] | half-life [3] [min] | IC50 [4] [nM] | IC50 [6] [nM] | SMILES | further results |
| --- | --- | --- | --- | --- | --- | --- | --- | --- | --- | --- |
| 12 | 1 | < 10 | < 10 | 20 | 59 | 16 | 68 |  | CC(C)NC(=O)c1ccc(Nc2nccc(-c3ccc4nc(N5CCOCC5)ncc4c3)n2)cc1 |  |
|  |  |  |  | 316 |  |  |  |  | O=C(NC1CCNCC1)c1ccc(Nc2nccc(-c3ccc4nc(N5CCCC5)ncc4c3)n2)cc1 |  |
|  |  |  |  | 144 |  |  |  |  | CC(C)NC(=O)c1cccc(Nc2nccc(-c3ccc4nc(N5CCCC5)ncc4c3)n2)c1 |  |
|  |  |  |  | 66 |  |  |  |  | COC(=O)N1CCC(c2ccc(Nc3nccc(-c4ccc5nc(N6CCCC6)ncc5c4)n3)cn2)CC1 |  |
| < 10 | < 10 | < 10 | < 10 | 25 | 22 | 44 | > 1000 | > 10000 | CC(C)NC(=O)c1ccc(Nc2ncc(F)c(-c3ccc4nc(N5CCCC5)ncc4c3)n2)cc1 |  |
| 22 | 16 | 25 | 39 | 12 | 92 | 61 | 85 | > 10000 | CC(C)NC(=O)c1ccc(Nc2nccc(-c3ccc4nc(N5CCCC5)ncc4c3)n2)cn1 |  |

The remaining lines, values behind:

| SMILES | inhibition at 10 µM (CYP1A2) [%] | inhibition at 10 µM (CYP2D6) [%] | inhibition at 10 µM (CYP3A4) [%] | inhibition at 10 µM (CYP2C9) [%] | IC50 [1] [nM] | half-life [2] [min] | half-life [3] [min] | IC50 [4] [nM] | IC50 [6] [nM] | further results |
| --- | --- | --- | --- | --- | --- | --- | --- | --- | --- | --- |
| c1cc(-c2ccc3nc(N4CCCC4)ncc3c2)nc(Nc2ccc(OC3CCNCC3)cc2)n1 |  |  |  |  | > 10000 |  |  |  |  |  |
| c1cc(-c2ccc3nc(N4CCOCC4)ncc3c2)nc(Nc2ccc(N3CCNCC3)cc2)n1 | < 10 | < 10 | 11 | 7 | 20 | 16 | 12 | 4 |  |  |
| c1cc(-c2ccc3nc(N4CCCC4)ncc3c2)nc(Nc2ccc(N3CCOCC3)cc2)n1 | < 10 | < 10 | 22 | 14 | 43 | 35 | 69 | 46 |  |  |
| CC(C)NC(=O)c1ccc(Nc2nccc(-c3ccc4nc(N5CCCC5)ncc4c3)n2)cc1 | < 10 | 3 | 16 | 14 | 23 | 37 | 45 | 440 | > 10000 | inhibition [5]: 40%; IC50 (HEL): 2310 nM; IC50 (Kasumi 1): 7670 nM; IC50 [7]: 132 nM; IC50 (MOLM-13): 920 nM; half-life [8]: 162 min; IC50 [9]: 245 nM; AUC(0-t) at 24 h [10]: 4.2 µM·h; inhibition [11]: 98%; IC50 at 72 h [12]: 99500 nM; IC50 (LIM domain kinase 1 [13]): 650 nM; Cmax [14]: 1000 nM; Tmax [15]: 60 min; inhibition (LIM domain kinase 1 [16]): 46%; inhibition [17]: 45% |
| OCCN1C[C@@H]2C[C@H]1CN2c1ccc(Nc2ncc(F)c(-c3ccc4nc(N5CCCC5)ncc4c3)n2)cn1 |  |  |  |  | 48 |  |  | 13 | 160 |  |
| c1cc(-c2ccc3nc(N4CCOCC4)ncc3c2)nc(Nc2cnn(C3CCNCC3)c2)n1 | 11 | < 10 | < 10 | < 10 | 19 | 62 | 84 | 6 |  |  |
| c1cc(-c2ccc3nc(N4CCCC4)ncc3c2)nc(Nc2cnn(C3CCNCC3)c2)n1 | 52 | 5 | < 10 | < 10 | 20 | > 100 | 23 | 6 |  |  |
| c1cc(-c2ccc3nc(N4CCCC4)ncc3c2)nc(Nc2ccc(N3CCNCC3)cc2)n1 | 7 | 2 | 22 | 23 | 55 | 9 | > 100 | 27 |  |  |
| CN1CCN(c2ccc(Nc3nccc(-c4ccc5nc(N6CCCC6)ncc5c4)n3)cc2)CC1 |  |  |  |  | 51 |  |  |  |  |  |
| OCCN1CCC(c2ccc(Nc3nccc(-c4ccc5nc(N6C[C@@H]7C[C@H]6CO7)ncc5c4)n3)cn2)CC1 | < 10 | < 10 | < 10 | < 10 | 17 | 69 | 20 | 40 | 1120 |  |
| c1cc(-c2ccc3nc(N4CCCC4)ncc3c2)nc(Nc2ccc(N3CCNCC3)nc2)n1 |  |  |  |  | 18 |  |  | 2 | 124 | IC50 (HEL): 1930 nM; IC50 (Kasumi 1): 1190 nM; IC50 (MOLM-13): 1340 nM; inhibition [18]: 45%; IC50 at 72 h [12]: 11700 nM; inhibition [19]: 50%; inhibition [20]: 45%; IC50 [21]: 135 nM; inhibition [22]: 50%; inhibition [23]: 95%; inhibition [24]: 75% |
| OCCN1CCC(n2cc(Nc3ncc(F)c(-c4ccc5nc(N6CCOCC6)ncc5c4)n3)cn2)CC1 | < 10 | < 10 | < 10 | < 10 | 21 | 83 | 97 | 17 |  | IC50 (HEL): 2960 nM; IC50 (Kasumi 1): 760 nM; IC50 (MOLM-13): 1960 nM; IC50 at 72 h [12]: 16200 nM |
| COC(=O)N1CCC(c2ccc(Nc3nccc(-c4ccc5nc(N6C[C@@H]7C[C@H]6CO7)ncc5c4)n3)cn2)CC1 |  |  |  |  | 29 |  |  |  |  |  |

— ChEMBL document CHEMBL5532747, “Potent, Selective, and Orally Bioavailable Quinazoline-Based STK17A/B Dual Inhibitors” (ACS Med Chem Lett, 2024)
